Test in all cases: NCI tumour cell line growth inhibition, 48 h
The subject of experiment [1] is NCI-H226.
Experiment [2] has as its system PC-3.
Experiment [3] deals with SF-295.
Experiment [4] relates to A498.
Experiment [5] concerns BT-549.
Experiment [6] has as its system CCRF-CEM.
Experiment [7] has as its system MDA-MB-435.
For experiment [8], the system named is DU-145.
Experiment [9] concerns KM12.
Experiment [10] deals with IGROV-1.
Experiment [11] has as its system 786-0.
Experiment [12] has as its system EKVX.
For experiment [13], the system named is MDA-N.
Experiment [14] concerns UACC-257.
Experiment [15] deals with Hs-578T.
Experiment [16] has as its system MOLT-4.
Experiment [17] deals with K562.

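Cultured in 96-well plates, cells were exposed to test compound for 48 hours across five concentrations. GI50 is the concentration that inhibits growth by half.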 Active and inactive are the calls of the source. Cut-off read from the data, not from the text of the source: active = GI50 up to about 1.1 µM and inactive = higher.

In the case of `CCOC(=O)CCSS(=O)(=O)C(F)(F)F`, the GI50 in experiment [1], in experiment [2], in experiment [3], in [4], in experiment [5] and in [6] was > 100 µM (inactive) throughout. For the same compound, the GI50 in experiment [7], in experiment [8], in [9], in [10], in experiment [11] and in experiment [12] was > 100 µM (inactive) in each case. Moreover, the GI50 in experiment [13] and in experiment [14] was > 100 µM (inactive) in each case.

As to `c1ccc(C(NC2=NCCO2)C2CC2)cc1` (centres undefined), the GI50 in [15] was > 100 µM (inactive); in experiment [1], > 100 µM (inactive); in [2], > 100 µM (inactive); in [3], > 100 µM (inactive); in [16], > 100 µM (inactive); in [4], 93.1 µM (inactive). In addition, the GI50 in experiment [7] is 75.9 µM (inactive); in [8], > 100 µM (inactive); in [9] it was > 100 µM (inactive); in experiment [10] it was > 100 µM (inactive); in experiment [11], > 100 µM (inactive); in experiment [12], > 100 µM (inactive). Moreover, the GI50 in experiment [13] and in experiment [14] was > 100 µM (inactive) in each case.

As for `Clc1ccc(C(SCc2ccccc2)SCc2ccccc2)cc1`, the GI50 in [15], in experiment [1], in experiment [2], in experiment [17], in experiment [3] and in [16] was > 10 µM (inactive) throughout. The GI50 in experiment [4], in experiment [6], in experiment [8], in experiment [9], in [10] and in experiment [11] was > 10 µM (inactive) throughout. Further, the GI50 in experiment [12], in [13] and in [14] was > 10 µM (inactive) throughout.

For the compound `O=[N+]([O-])c1cccc2nc3ccccc3c(NCCNCCO)c12`, the GI50 was 0.0251 µM (active) in experiment [15]; 0.0166 µM (active) in [1]; 0.00245 µM (active) in [2]; 0.00427 µM (active) in experiment [17]; 0.00425 µM (active) in experiment [3]; 0.00402 µM (active) in experiment [16]. Besides, the GI50 in experiment [4] is 0.0121 µM (active); in experiment [5], 0.00542 µM (active); in experiment [6], 0.0158 µM (active); in experiment [7], 0.011 µM (active); in experiment [8] it was 0.00288 µM (active); in experiment [9], 0.0122 µM (active). Besides, the GI50 was 0.00198 µM (active) in experiment [10], 0.00348 µM (active) in [11], 0.00853 µM (active) in experiment [12] and 0.0154 µM (active) in experiment [14].

For the compound `Cc1cc(NC(=S)SCc2ccc(F)cc2)c([N+](=O)[O-])cc1C`, the GI50 in [15] was 13.4 µM (inactive); in [1], 16.6 µM (inactive); in experiment [2], 42.2 µM (inactive); in [17], 32.3 µM (inactive); in experiment [3] it was 34.5 µM (inactive); in [16] it was 3.29 µM (inactive). Further, the GI50 is 28.2 µM (inactive) in [5]; 26.7 µM (inactive) in experiment [7]; 32.2 µM (inactive) in experiment [8]; 19.9 µM (inactive) in experiment [9]; 33.3 µM (inactive) in experiment [11]; 39.6 µM (inactive) in experiment [12]. For the same compound, the GI50 in experiment [14] was 21 µM (inactive).

With `CC1(O)OC(=O)C2=C1CCC1C2CCC2(C)C(O)CCC12` (centres undefined), the GI50 in [15] is > 100 µM (inactive); in [1], > 100 µM (inactive); in [17] it was > 100 µM (inactive); in [3] it was > 100 µM (inactive); in experiment [16] it was > 10 µM (inactive); in [4], > 100 µM (inactive). Also, the GI50 in experiment [5], in [6], in experiment [7], in experiment [8], in experiment [9] and in experiment [10] was > 100 µM (inactive) throughout. The GI50 in experiment [11], in experiment [12], in experiment [13] and in [14] was > 100 µM (inactive) in each case.

`C=C(C)C(=O)[C@@]12C(=O)[C@@H](C)CC[C@H]1[C@H](C)C[C@@H]2C=C(C)C`: the GI50 in experiment [1] is < 0.01 µM (active); in [2], 24 µM (inactive); in [17] it was 29.6 µM (inactive); in [3], 33.9 µM (inactive); in experiment [16] it was 15.8 µM (inactive); in experiment [4], 52.4 µM (inactive). In addition, the GI50 was 23.1 µM (inactive) in experiment [6]; 20.3 µM (inactive) in experiment [7]; 38.4 µM (inactive) in experiment [8]; 23.9 µM (inactive) in experiment [9]; 27.5 µM (inactive) in experiment [10]; 20.1 µM (inactive) in [11]. Besides, the GI50 was 30.5 µM (inactive) in [12], 24.1 µM (inactive) in experiment [13] and 15.2 µM (inactive) in experiment [14].

Consider `O=[N+]([O-])c1ccc(-c2nc3cc([N+](=O)[O-])ccc3[nH]2)cc1`, for which the GI50 in [15] was 40.5 µM (inactive); in experiment [1], 39.6 µM (inactive); in [2], 16.4 µM (inactive); in experiment [3], 20 µM (inactive); in experiment [16], 29.9 µM (inactive); in experiment [5] it was 31.2 µM (inactive). Moreover, the GI50 in experiment [7] was 29.4 µM (inactive); in [8], 27.9 µM (inactive); in experiment [9] it was 24.8 µM (inactive); in experiment [10], 30.5 µM (inactive); in [11] it was 32.1 µM (inactive); in [12] it was 39.3 µM (inactive). The GI50 was 33.2 µM (inactive) in experiment [13] and 31 µM (inactive) in [14].

Take `Cc1nc2c(sc(=S)n2-c2ccccc2)c(=O)[nH]1`: the GI50 in [1], in experiment [17], in [3], in experiment [16], in experiment [4] and in experiment [6] was > 100 µM (inactive) throughout. For the same compound, the GI50 in experiment [9], in [10] and in [14] was > 100 µM (inactive) in each case.

Regarding `CC(=O)OCC1OC(N2C(=O)NC(=O)C3C=C4CCCCC4=CC32)C(OC(C)=O)C1OC(C)=O` (centres undefined), the GI50 in experiment [2], in [17], in experiment [3], in [16], in [4] and in experiment [5] was > 100 µM (inactive) in each case. Further, the GI50 in experiment [6], in [7], in experiment [8], in experiment [10], in experiment [12] and in experiment [13] was > 100 µM (inactive) each time. For the same compound, the GI50 in [14] is > 100 µM (inactive).

Values taken from ChEMBL document CHEMBL1201862, “PubChem BioAssay data set” (2004).
